Legend:
[1] = tested on: Botrytis cinerea (isolate BcI16); test: Gray mold on attached leaves of tomato plants treated by spray or drench; assay type: in vivo; details: for B. cinerea infection (disease severity): 0.5 mM, spraying
Protocol: Tomato plants (tomato cultivar-Brigate) were grown from seeds in a nursery and transplanted into 1 liter pots at 40 to 50 days following seeding in an unheated greenhouse. Plants were fertilized proportionally with drippers 2-3 times per day with 5:3:8 NPK fertilizer (irrigation water was planned to have total N, P and K concentrations of 120, 30 and 150 mg/L, respectively; EC 2.2 dS/m), allowing for 25-50% drainage. Plants were maintained at 20-30° C. with natural light, and relative humidity of 50-90% in a pest- and disease-free greenhouse during the growth period and then transferred to an area where disease was allowed to develop following pathogen infection on intact leaves as described below.
Botrytis cinerea [Pers.:Fr. [Teleomorph: Botryotinia fuckeliana (de Bary) Whetzel] (isolate BcI16; [Swartzberg D. et al., Eur. J. Plant Pathol., 2008, 120:289-297])] was cultured on potato dextrose agar (PDA, Difco, Detroit, MI) in 90 mm diam. petri plates containing 15 ml PDA each and incubated at 20° C. The inoculum was maintained on PDA and transferred every two weeks. Gray mold conidia were harvested from 10 to 14 day-old cultures by agitating 1 cm^2 of agar bearing mycelium and conidia in a glass tube with tap water. The suspension was then filtered through cheesecloth. The concentration of conidia was determined using a haemocytometer and a light microscope, and adjusted to 5×10^5 conidia/ml. Since B. cinerea conidia need carbon and phosphate for germination and penetration, 0.1% glucose was added to the final conidial suspension together with 0.1% KH2PO4.
Plant attached tomato leaves were examined. Whole plants were kept in a humidity chamber at 22±1° C., 97±3% RH, and 1020 lux light intensity. Plants were infected by placing 10 μL drops of a 5×10^5 conidia/ml suspension, 5 drops/leaf (one drop on each leaflet), on two mature leaves.
Disease severity was evaluated on each plant using a pictorial key; 0=no infection (infection site is symptomless) and 100=all infection site fully covered by gray mold symptoms. The analyses were performed in the mentioned plants.
Phenylalanine treatment consisted of either spray or drench at concentrations of 0.5-4.1 mM administrated 3 and 0 days before infection with B. cinerea. Control plants were treated by water and kept under the same conditions as mentioned above.
Treatments in experiments were replicated 5 times. Replicates of each treatment were arranged randomly. Disease severity data in percentages were arcsin-transformed before further analysis. Disease severity data were analyzed using ANOVA and Fisher's protected LSD test and disease levels were statistically separated (P≤0.05) following a one-way analysis of variance.
Specifically, tomato plants were sprayed with increasing concentrations of Phe solutions (0.5-30 mM aquatic solution of Phe, no detergent) and percent disease severity was determined 11 days following treatment.

B. cinerea [2] = test: Whole petunia plants sprayed or pots drenched, leaves inoculated with B. cinerea; assay type: in vivo, Botrytis cinerea; details: for B. cinerea infection (decay area): 0.5 mM, spraying
Protocol: Inoculation with B. cinerea was performed 3 days after Phe treatment. In this case only one Phe treatment was performed however multiple treatments can be used e.g., first-three days prior to inoculation and a second one on the day of inoculation (data not shown but results are similar). 18 leaves were inoculated with B. cinerea, as described above. The plants were covered with a nylon bag and kept in the light and 22° C. (as above).
Commercial petunia plants (‘Dream Heaven’) were treated as described above in Example 3, either by spraying the plants (FIG. 3A) or drenching the pots (FIG. 3B), this time with increasing concentrations of Phe (6-50 mM).

[3] = tested on: Botrytis cinerea strain BO-05; test: Detached petunia leaves dipped in Phe, wound inoculated with B. cinerea conidia; assay type: in vivo; details: 15 mM Phe dip, 7 days post inoculation, vs non-treated controls
Protocol: Petunia (Petunia×hybrida) V26 variety, and a commercial white flowered cultivar (Dream White) cultivars were used. Petunia plants were grown as described in Oliva et al., (2015). Arabidopsis plants were grown as described in Tzin et al., (2012).
Conidia of Botrytis cinerea strain BO-05 were grown on PDA medium for 10 days. Conidia were gently collected from the plate in sterile water and were diluted to 10^6 conidia/ml. Fresh leaves of similar age and size of Petunia or Arabidopsis were detached from the plant, washed with water and placed in a humid chamber, under artificial light at 22° C. The upper side of the leaves was wounded (1-2 mm) and 5 μl drops of conidia suspension at a concentration of 10^6 conidia/ml were placed on the artificial wound. Decay diameter was measured following inoculation in specific days post inoculation (dpi) as detailed in the results.
Petunia leaves were dipped for 10 min in double distilled water with 0.02% Silwett L-77 surfactant supplemented either with 15 mM or 0 mM phenylalanine. Leaves were then placed in a humid box, and wound inoculated with B. cinerea was performed as described above.
In an independent experiment the decay diameter of detached leaves of wild type petunia (V26 cultivar) treated with 15 mM Phe or with […]. […]
Necrotic area was measured at 3, 4 and 7 days post inoculation (dpi). […]

B. cinerea [4] = test: Cut Ruscus branches drenched or dipped in Phe, leaves wounded and inoculated with B. cinerea; assay type: in vivo, Botrytis cinerea; details: whole branches dipped for an hour in 6 mM
Protocol: Ruscus branches serve as an ornamental decorative. These plants are very susceptible to Botrytis. Cut branches were treated with Phe either by drenching the tip of the cut branch in the Phe solution (FIG. 4B), or dipping the whole cut branch in Phe solution for an hour before dipping it in water and inoculating with botrytis. In both treatments the concentration used was 6 mM phenylalanine, and for the drenching treatment an additional concentration of 20 mM was added (FIG. 4A). For the dipping experiment 50 ppm T.O.G-6 was added to the Phe solution to prevent bacterial growth during the days of the experiment. Control branches were drenched in water and dipped in water with 50 ppm T.O.G-6. Ruscus leaves were wounded and inoculated with B. cinerea as described in the above Examples. Decay area (mm*2) results are presented as averages of 10 replications with each being a leaf from one of 10 branches±SE.

Sclerotinia sclerotiorum [5] = test: Sweet basil plants in pots, white rot after mycelium disc inoculation; assay type: in vivo; details: 4.1 mM, spray or drench
Protocol: Phe concentration used was 4.1 mM. Results are presented by disease severity scoring of AUDPC (area under disease progress curve during 6 days after infection) where the severity is marked by units of rot diameter (mm) multiplied by the time of incubation.
Sweet basil plants in pots were treated with 4.1 mM Phe as described for tomato, and inoculated with a S. sclerotiorum mycelium disc from 4 days potato dextrose agar culture (White rot), related to botrytis, both being from the Ascomycota division.

Sclerotinia sclerotiorum [6] = test: Tomato leaves, white rot after spray or drench treatment; assay type: in vivo; details: spray and drench, 4 mM
Protocol: Phe concentration used was 4 mM. Results are presented by disease severity scoring of AUDPC (area under disease progress curve during 15 days after infection) where the severity is marked by units of rot area (mm^2) multiplied by the time of incubation.

[7] = tested on: Plenodomus tracheiphilus syn Phoma tracheiphila; test: Lemon plants in pots, mal secco disease after leaf wounding and conidia infection; assay type: in vivo; details: 4 mM, drenching 10 ml per pot or spraying
Protocol: Phe concentration used was 4 mM. Results are presented by disease incidence of infection sites as percent resulting from drench treatment (lower FIG. 7A) and spray treatment (upper FIG. 7A)
Lemon plants in pots were treated with 4 mM Phe water solutions either by drenching 10 ml of solution per pot or spraying, as described for tomato. Infection was carried out by conidia suspension of Plenodomus tracheiphilus after leaf wounding by a needle. Disease incidence was evaluated according to the amount of successful infection sites on the infected leaves and presented as percent of infected leaves.

Alternaria alternata = test: Postharvest avocado fruit dip, inoculation with Alternaria alternata; assay type: in vivo; details: avocado 'Ettinger', dip 30 seconds at 1-4 mM, 6 days post inoculation, 23° C.
Protocol: FIG. 8 are images of avocado fruits of the cultivar ‘Ettinger’ dipped in water or 1 mM or 4 mM phenylalanine for 30 seconds and stored for one day at 5° C. Then the avocado fruit were inoculated by wounding at the fruit equatorial with […] of spore suspension of Alternaria alternata at the concentration of 10^5 conidia/ml at two sides of the fruit. The fruits were stored at 23° C. The decay area was monitored during 6 days post inoculation. Clearly, the fruit treated with Phe solutions, postharvest show
Avocado fruits of the cultivar ‘Ettinger’ were dipped in water or 1 mM or 4 mM phenylalanine for 30 seconds and stored for one day at 5° C. Then the avocado fruit were inoculated at the fruit equatorial with Alternaria alternata at the concentration of 10^5 conidia/ml at two sides of the fruit. The decay area was monitored during 6 days post inoculation, while incubation at 23° C.

Pythium aphanidermatum = test: Cucumber plantlets, damping off disease after drench; assay type: in vivo; details: 4 mM drench
Protocol: Phe concentration used was 4 mM. Results are presented by the percentage of dead plants incidence (FIG. 9A). FIG. 9B: control treatment=lower row and Phe treatment=upper row.
Cucumber plantlets cv. Bet Alpha and grown in peat based growing medium were treated either by drenching 4 mM phenylalanine solution, 10 ml per pot containing 4 plants each. and the percent plantlets that survived was determined in each treatment. […] FIG. 9B presents two pots of each treatment; Pots in the lower row were not treated and pots in upper row were treated with 4 mM Phe.

Compound: N[C@@H](Cc1ccc(O)cc1)C(=O)O [Tyr, Tyrosine]
- B. cinerea infection (disease severity) [1]: reduced B. cinerea infection
- B. cinerea infection (decay area) (B. cinerea [2]; petunia): reduced B. cinerea infection

Compound: N[C@@H](Cc1ccccc1)C(=O)O [Phe, Phenylalanine]
- diameter of decay [3]: significantly smaller
- effect of adding a surfactant on resistance to B. cinerea ([1]; 0.5 mM Phe with 0.01% Tween 80 vs without): improved the effect of increased resistance
- B. cinerea infection (disease severity) [1]: reduced B. cinerea infection
- disease severity (gray mold) ([1]; drench to the root zone, 0.5 to 4.1 mM): reduced significantly
- duration of resistance ([1]; spray, 20 and 30 mM (results not shown)): increased resistance for a longer period of time
- disease severity (gray mold) ([1]; sprayed on the plants, 1.0 to 4.1 mM): reduced significantly
- resistance of the plants to B. cinerea at higher concentrations (B. cinerea [2]; petunia 'Dream Heaven', spray or drench, 6-50 mM): increased resistance
- B. cinerea infection (decay area) (B. cinerea [2]; petunia): reduced B. cinerea infection
- decay area (B. cinerea [2]; petunia, 35 and 50 mM, 7 days after spraying and 10 days after drenching): no increased decay area
- degree of resistance, 4.1 mM compared with 6 mM (B. cinerea [2]; whole petunia plants, 4.1 mM Phe vs 6 mM Phe): a little lower
- tolerance to B. cinerea (decay area) (B. cinerea [2]; whole petunia plants, spraying or drenching, 6 mM, inoculation 3 days after treatment): Increases Tolerance
- resistance to botrytis (decay area) (B. cinerea [4]): increased resistance of the plants to botrytis significantly
- disease symptoms (white rot) (Sclerotinia sclerotiorum [5]): significant reduction in disease symptoms
- resistance of tomato leaves to white rot (Sclerotinia sclerotiorum [6]): increase the resistance
- resistance of the plant leaves to the fungus (disease incidence) [7]: increased the resistance
- area of brown spots (Alternaria alternata): reduced the area of brown spots caused by Alternaria alternata by four folds
- tolerance to Pythium aphanidermatum (percentage of dead plants) (Pythium aphanidermatum): increased tolerance
